# According to ChEMBL document CHEMBL2086254, “Synthesis and identification of novel indolo[2,3-a]pyrimido[5,4-c]carbazoles as a new class of anti-cancer agents” (Eur J Med Chem, 2012):
# Legend:
# Format in all cases: functional
# [1] = Cytotoxicity against human Hs 578T cells after 48 hrs by SRB assay
# SF-295 = test: Cytotoxicity against human SF295 cells after 48 hrs by SRB assay; details: SF-295, 48 h
# Malme-3M = test: Cytotoxicity against human MALME-3M cells after 48 hrs by SRB assay
# ACHN = test: Cytotoxicity against human ACHN cells after 48 hrs by SRB assay
# HL-60 = test: Cytotoxicity against human HL60 cells after 48 hrs by SRB assay; details: HL-60, 48 h
# SN12C = test: Cytotoxicity against human SN12C cells after 48 hrs by SRB assay
# HOP-62 = test: Cytotoxicity against human HOP62 cells after 48 hrs by SRB assay; details: HOP-62, 48 h
# IGROV-1 = test: Cytotoxicity against human IGROV1 cells after 48 hrs by SRB assay; details: IGROV-1, 48 h
# COLO 205 = test: Cytotoxicity against human COLO205 cells after 48 hrs by SRB assay; details: COLO 205, 48 h
# PC-3 = test: Cytotoxicity against human PC3 cells after 48 hrs by SRB assay; details: PC-3, 48 h
# SNB-19 = test: Cytotoxicity against human SNB19 cells after 48 hrs by SRB assay; details: SNB-19, 48 h
# MDA-MB-435 = test: Cytotoxicity against human MDA-MB-435 cells after 48 hrs by SRB assay; details: MDA-MB-435, 48 h
# SF-268 = test: Cytotoxicity against human SF268 cells after 48 hrs by SRB assay; details: SF-268, 48 h
# MOLT-4 = test: Cytotoxicity against human MOLT4 cells after 48 hrs by SRB assay; details: MOLT-4, 48 h
# UO-31 = test: Cytotoxicity against human UO31 cells after 48 hrs by SRB assay; details: UO-31, 48 h
# K562 = test: Cytotoxicity against human K562 cells after 48 hrs by SRB assay; details: K562, 48 h
# RPMI-8226 = test: Cytotoxicity against human RPMI8226 cells after 48 hrs by SRB assay; details: RPMI-8226, 48 h
# HT-29 = test: Cytotoxicity against human HT-29 cells after 48 hrs by SRB assay; details: HT-29, 48 h
# UACC-257 = test: Cytotoxicity against human UACC257 cells after 48 hrs by SRB assay; details: UACC-257, 48 h
# NCI/ADR-RES = test: Cytotoxicity against human NCI/ADR-RES cells after 48 hrs by SRB assay
# EKVX = test: Cytotoxicity against human EKVX cells after 48 hrs by SRB assay
# SK-MEL-2 = test: Cytotoxicity against human SK-MEL-2 cells after 48 hrs by SRB assay; details: SK-MEL-2, 48 h
# HCT-116 = test: Cytotoxicity against human HCT116 cells after 48 hrs by SRB assay; details: HCT-116, 48 h
# LOX IMVI = test: Cytotoxicity in human LOXIMVI cells after 48 hrs by SRB assay
# SW-620 = test: Cytotoxicity against human SW620 cells after 48 hrs by SRB assay; details: SW-620, 48 h
# TK-10 = test: Cytotoxicity against human TK10 cells after 48 hrs by SRB assay; details: TK-10, 48 h
# UACC-62 = test: Cytotoxicity against human UACC62 cells after 48 hrs by SRB assay; details: UACC-62, 48 h
# HCC 2998 = test: Cytotoxicity against human HCC2998 cells after 48 hrs by SRB assay; details: HCC 2998, 48 h
# A498 = test: Cytotoxicity against human A498 cells after 48 hrs by SRB assay; details: A498, 48 h
# SF-539 = test: Cytotoxicity against human SF539 cells after 48 hrs by SRB assay; details: SF-539, 48 h
# KM12 = test: Cytotoxicity against human KM12 cells after 48 hrs by SRB assay; details: KM12, 48 h
# M14 = test: Cytotoxicity against human M14 cells after 48 hrs by SRB assay; details: M14, 48 h
# NCI-H522 = test: Cytotoxicity against human NCI-H522 cells after 48 hrs by SRB assay; details: NCI-H522, 48 h
# HOP-92 = test: Cytotoxicity against human HOP92 cells assessed as cell growth at 10 uM after 48 hrs by SRB assay relative to control; details: HOP-92, 48 h, read-out: Activity
# [2] = read-out: LC50 (the source's name)
compound,measurement,setting,value
Cn1c2ccccc2c2c3nc(N)[nH]c(=O)c3c3c4ccccc4n(C)c3c21,GI50,[1],10.2 µM
same,TGI,[1],> 100 µM
same,CC50,[1]; [2],> 100 µM
same,GI50,SF-295,3.68 µM
same,TGI,SF-295,12.9 µM
same,CC50,SF-295; [2],76.7 µM
same,GI50,Malme-3M,14.5 µM
same,TGI,Malme-3M,74.8 µM
same,CC50,Malme-3M; [2],> 100 µM
same,GI50,ACHN,1.11 µM
same,TGI,ACHN,> 100 µM
same,CC50,ACHN; [2],> 100 µM
same,GI50,HL-60,4.19 µM
same,TGI,HL-60,38 µM
same,CC50,HL-60; [2],> 100 µM
same,GI50,SN12C,6.49 µM
same,TGI,SN12C,> 100 µM
same,CC50,SN12C; [2],> 100 µM
same,GI50,HOP-62,41 µM
same,TGI,HOP-62,> 100 µM
same,CC50,HOP-62; [2],> 100 µM
same,GI50,IGROV-1,31.3 µM
same,TGI,IGROV-1,> 100 µM
same,CC50,IGROV-1; [2],> 100 µM
same,GI50,COLO 205,7.99 µM
same,TGI,COLO 205,39.4 µM
same,CC50,COLO 205; [2],> 100 µM
same,GI50,PC-3,5.54 µM
same,TGI,PC-3,> 100 µM
same,CC50,PC-3; [2],> 100 µM
same,GI50,SNB-19,> 100 µM
same,TGI,SNB-19,> 100 µM
same,CC50,SNB-19; [2],> 100 µM
same,GI50,MDA-MB-435,3.39 µM
same,TGI,MDA-MB-435,22.3 µM
same,CC50,MDA-MB-435; [2],> 100 µM
same,GI50,SF-268,15.8 µM
same,TGI,SF-268,> 100 µM
same,CC50,SF-268; [2],> 100 µM
same,GI50,MOLT-4,6.09 µM
same,TGI,MOLT-4,> 100 µM
same,CC50,MOLT-4; [2],> 100 µM
same,GI50,UO-31,1.37 µM
same,TGI,UO-31,> 100 µM
same,CC50,UO-31; [2],> 100 µM
same,GI50,K562,3.93 µM
same,TGI,K562,40.3 µM
same,CC50,K562; [2],> 100 µM
same,GI50,RPMI-8226,11.1 µM
same,TGI,RPMI-8226,65.6 µM
same,CC50,RPMI-8226; [2],> 100 µM
same,GI50,HT-29,3.98 µM
same,TGI,HT-29,66.1 µM
same,CC50,HT-29; [2],> 100 µM
same,GI50,UACC-257,12.8 µM
same,TGI,UACC-257,32 µM
same,CC50,UACC-257; [2],79.7 µM
same,GI50,NCI/ADR-RES,3.87 µM
same,TGI,NCI/ADR-RES,> 100 µM
same,CC50,NCI/ADR-RES; [2],> 100 µM
same,GI50,EKVX,12.7 µM
same,TGI,EKVX,> 100 µM
same,CC50,EKVX; [2],> 100 µM
same,GI50,SK-MEL-2,1.9 µM
same,TGI,SK-MEL-2,7.59 µM
same,CC50,SK-MEL-2; [2],76.5 µM
same,GI50,HCT-116,3.2 µM
same,TGI,HCT-116,35.3 µM
same,CC50,HCT-116; [2],> 100 µM
same,GI50,LOX IMVI,4.7 µM
same,TGI,LOX IMVI,31.1 µM
same,CC50,LOX IMVI; [2],> 100 µM
same,GI50,SW-620,4.05 µM
same,TGI,SW-620,> 100 µM
same,CC50,SW-620; [2],> 100 µM
same,GI50,TK-10,7.14 µM
same,TGI,TK-10,> 100 µM
same,CC50,TK-10; [2],> 100 µM
same,GI50,UACC-62,16.1 µM
same,TGI,UACC-62,> 100 µM
same,CC50,UACC-62; [2],> 100 µM
same,GI50,HCC 2998,6.08 µM
same,TGI,HCC 2998,> 100 µM
same,CC50,HCC 2998; [2],> 100 µM
same,GI50,A498,27.4 µM
same,TGI,A498,97.1 µM
same,CC50,A498; [2],> 100 µM
same,GI50,SF-539,18.4 µM
same,TGI,SF-539,56.6 µM
same,CC50,SF-539; [2],> 100 µM
same,GI50,KM12,3.24 µM
same,TGI,KM12,32.3 µM
same,CC50,KM12; [2],> 100 µM
same,GI50,M14,3.36 µM
same,TGI,M14,89.6 µM
same,CC50,M14; [2],> 100 µM
same,GI50,NCI-H522,14.5 µM
same,TGI,NCI-H522,> 100 µM
same,CC50,NCI-H522; [2],> 100 µM
Cn1cc(-c2[nH]c(=S)[nH]c(=O)c2-c2cn(C)c3ccccc23)c2ccccc21,growth at 10 µM,HOP-92,69.8%
